Data taken from patent US11965159B2, “Compositions and methods for regulating proteins and nucleic acids activities” (THE BROAD INSTITUTE, INC., priority 2019, dated 2024).

Assays:
[1] = target: T1, dCas9-cytidine deaminase conjugate (BE3) (UniProt P14739+P38483+Q99ZW2, D10A); assay: BE3 base-editing of EMX1 gene in HEK293T cells; assay type: cell-based; settings: 1.25-20 μM, 72 h; BE3:gRNA ribonucleoprotein delivery
T1 construct: His6 (N); made in house; host or cells: E. coli BL21 Star (DE3); purified protein lipofected as BE3:gRNA RNP into HEK293T cells
Description: Protein transfection of base editor BE3 into HEK293T cells. HEK293T cells were seeded on 48-well BioCoat® poly-D-lysine plates (Corning®) in 250 μL of antibiotic-free medium and transfected at ˜70% confluency. Prior to protein transfection, cells were incubated with 2 μL of DMSO-suspended BRD7087 or BRD5779 at the indicated concentration for 2-3 hours. BE3 protein was incubated with 1.1× molar excess of EMX1-targeting sgRNA at a final concentration ratio of 200 nM: 220 nM (based on a total well volume of 275 μL). The complex was mixed with 0.2 μL of compound for five minutes, incubated with 1.5 μL Lipofectamine™ 2000 (THERMOFISHER) and transfected according to the manufacturer's protocol plasmid delivery. […]
Purifications and sequencing of genomic DNA. […] Barcoded samples were pooled and purified by gel extraction (QIAGEN) before quantification using the Qubit™ dsDNA HS Kit (THERMOFISHER) and qPCR (KAPA BioSystems) according to the manufacturer's instructions. Sequencing of pooled samples was performed using a single-end read from 260 to 300 bases on the MiSeq™ ([…]) according to the manufacturer's instructions.
Analysis of base-edited sequences. Nucleotide frequencies were analyzed using a previously described MATLAB script 5. Briefly, the reads were aligned to the reference sequence via the Smith-Waterman algorithm. […]

[2] = system: HEK293T cells; assay: Cell viability assay (ATP content) of HEK293T cells; assay type: cell-based; settings: up to 20 μM, 24 h
Description: FIG. 23—Cell viability assay (ATP content) of HEK293T cells in the presence of compounds. Measurement of ATP content of HEK293T cells upon incubating with BRD7087 and BRD5779 (5-20 μM) for 24 h. Error bars represent ±S.D. from technical replicates (n=3).
FIG. 67. Cell viability assay (ATP content) of HEK293T cells in the presence of compounds. Measurement of ATP content of HEK293T cells upon incubating with BRD7087 and BRD5779 (5-20 μM) for 24 h. Error bars represent ±S.D. from technical replicates (n=3).

| SMILES | inhibition of BE3-mediated base-editing (C→T conversion, EMX1) [1] | cellular ATP-levels [2] |
| --- | --- | --- |
| COc1ccc(-c2ccc3c(c2)[C@H]2[C@H](CCN2Cc2ccncc2)[C@@H](CO)N3)cc1 [BRD5779, ((3aR,4S,9bR)-8-(4-Methoxyphenyl)-1-(pyridin-4-ylmethyl)-2,3,3a,4,5,9b-hexahydro-1H-pyrrolo[3,2-c]quinolin-4-yl)methanol] | efficient and dose-dependent inhibition | did not significantly alter |
| OC[C@H]1Nc2ccc(-c3cccc(F)c3)cc2[C@H]2[C@@H]1CCN2Cc1ccncc1 [BRD7087, ((3aR,4S,9bR)-8-(3-Fluorophenyl)-1-(pyridin-4-ylmethyl)-2,3,3a,4,5,9b-hexahydro-1H-pyrrolo[3,2-c]quinolin-4-yl)methanol] | efficient and dose-dependent inhibition | did not significantly alter |
